Test results from patent publication US20060122148A1, “High affinity receptors for helicobacter pylori and use thereof” (priority 2002, published 2006).

Assays:
H. pylori strain J99 = assay: Chromatogram binding assay of 35S-labeled H. pylori to gangliosides on thin-layer plates; parameters: species or system Helicobacter pylori
[1] = tested on: H. pylori strain CCUG 17874; assay: as above; parameters: species or system Helicobacter pylori; settings: for Binding to ganglioside (in words): strain CCUG 17874, thin-layer plates, non-binding = no binding at 4 μg; for Amount at which binding was saturated: dilutions of gangliosides on thin-layer plates
[2] = tested on: H. pylori strain CCGU 17874; assay: Overlay of TLC plates with radiolabeled bacteria (S-3-PG derivatives, glycolipids, neoglycolipids); type: binding, Helicobacter pylori; settings: for Binding of H. pylori on TLC plates (in words): overlay with radiolabeled bacteria
H. pylori strain 032 = assay: Overlay of TLC plates with radiolabeled bacteria (PGCs); type: binding, Helicobacter pylori; settings: 032 strain from broth

Galα3(Fucα2)Galβ4GlcNAcβ6(NeuAcα3Galβ4GlcNAcβ3)Galβ4GlcNAcβ3Galβ4Glcβ1Cer [No. 19]
Binding to ganglioside (in words) (H. pylori strain J99): recognized | Binding to ganglioside (in words) [1]: recognized | Detection level ([1]; thin-layer plates): approximately 100 pmole

NeuAcα3Galβ3(Fucα4)GlcNAcβ3Galβ4Glcβ1Cer [No. 6]
Binding to ganglioside (in words) (H. pylori strain J99): occasional binding | Binding to ganglioside (in words) [1]: did not recognize

NeuAcα3Galβ4(Fucα3)GlcNAcβ3Galβ4(Fucα3)GlcNAcβ3Galβ4Glcβ1Cer [No. 13]
Amount at which binding was saturated [1]: approximately 100 pmole | Binding to ganglioside (in words) [1]: recognized

NeuAcα3Galβ4GlcNAcβ3Galβ4(Fucα3)GlcNAcβ3Galβ4Glcβ1Cer [No. 12]
Binding to ganglioside (in words) [1]: recognized

NeuAcα3Galβ4GlcNAcβ3Galβ4Glc-HDA (or -branched lipid)
Binding of H. pylori on TLC plates (in words) [2]: active

NeuAcα3Galβ4GlcNAcβ3Galβ4GlcNAcβ3Galβ4GlcNAcβ3Galβ4Glcβ1Cer [No. 10]
Binding to ganglioside (in words) [1]: recognized

NeuAcα3Galβ4GlcNAcβ3Galβ4GlcNAcβ3Galβ4Glcβ1Cer [No. 8]
Binding to ganglioside (in words) (H. pylori strain J99): recognized | Amount at which binding was saturated [1]: approximately 100 pmole | Relative binding affinity ([1]; strain CCUG 17874, serial dilutions 1-100 pmole on thin-layer plates, densitometry): comparable to the binding of cholera toxin B-subunits to the GM1 ganglioside | Binding to ganglioside (in words) [1]: recognized | Binding of H. pylori on TLC plates (in words) [2]: stronger than binding to sialoneotetraosylceramide

NeuAcα3Galβ4GlcNAcβ3Galβ4Glcβ1Cer [No. 2]
Binding of H. pylori on TLC plates (in words) (H. pylori strain 032): do not bind | Sensitivity of detection ([2]; some H. pylori batches): 0.3-0.4 pmol/mm^2

NeuAcα3Galβ4GlcNAcβ6(NeuAcα3Galβ4GlcNAcβ3)Galβ4GlcNAcβ3Galβ4Glcβ1Cer [No. 16]
Binding to ganglioside (in words) (H. pylori strain J99): recognized | Binding to ganglioside (in words) [1]: recognized

NeuAcα3Galβ4Glcβ1Cer [No. 1]
Binding to ganglioside (in words) [1]: inactive
